The record followed here is PubChem BioAssay (NCI).

Structures are written as SMILES.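 Interpolation was linear, between the two tested concentrations surrounding the appropriate level; five concentrations were tested over 48 hours in 96-well plates. TGI: total growth inhibition.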 Some results are limits rather than exact numbers.

Common to all, as to test: NCI tumour cell line growth inhibition, 48 h
Test [1] deals with LOX IMVI melanoma.
The test system of test [2] is UACC-257 melanoma.
Test [3] relates to SF-268 CNS.
For test [4], the system named is NCI-H226 lung.
Test [5] relates to SK-MEL-28 melanoma.
For test [6], the system named is OVCAR-5 ovarian.
Test [7] concerns OVCAR-4 ovarian.
For test [8], the system named is KM12 colon.
Test [9] concerns SN12C renal.
In test [10] the test system is A549 NSCLC.
Test [11] has as its system HCT-116 colon.
Test [12] has as its system HT29 colon.
Test [13] concerns HL-60(TB) leukemia.
Test [14] relates to U251 CNS.
The test system of test [15] is MCF7 breast.
For test [16], the system named is SNB-75 CNS.
Test [17] has as its system HOP-92 NSCLC.
Test [18] has as its system MALME-3M melanoma.
Test [19] has as its system NCI-H460 lung.
Test [20] deals with RPMI-8226 leukemia.

For `C/C(=C/c1ccccc1)CN(C(=O)/C=C\Sc1ccccc1)C(C)(C)C`, the TGI is more than 100 µM in [1]; more than 100 µM in test [2]; more than 38.1 µM in test [3]; more than 100 µM in test [4]; more than 100 µM in [5]; more than 100 µM in test [6]. The TGI in [7], in test [8], in [9], in test [10], in test [11] and in [12] was more than 100 µM each time. The TGI in [13] was more than 100 µM; in [14], more than 100 µM; in [15] it was more than 100 µM; in test [16], more than 100 µM; in test [17] it was more than 71.6 µM; in test [18] it was more than 100 µM. In addition, the TGI in test [19] and in test [20] was more than 100 µM in each case.
Regarding `N=c1oc2c(Br)cc(Br)cc2cc1C(=O)Nc1ccccn1`, the TGI in test [1], in [2], in test [3], in test [4], in [5] and in test [6] was more than 100 µM each time. Besides, the TGI in test [7], in [8], in test [9], in test [10], in test [11] and in [12] was more than 100 µM each time. In addition, the TGI in test [13], in test [14], in test [15], in test [16], in test [17] and in [18] was more than 100 µM in each case. The TGI in test [19] and in [20] was more than 100 µM throughout.
Take `Cc1cc(N)ccc1N=Nc1ccc(S(=O)(=O)CCOS(=O)(=O)O)cc1`: the TGI in test [1] was determined as 2.97 µM; in test [2], 24.3 µM; in test [3], 21.7 µM; in test [4] it was 15.6 µM; in test [5], 19 µM; in test [6] it was 26.4 µM. In addition, the TGI came out at 29 µM in test [7]; 13.2 µM in test [8]; 11.1 µM in [9]; 21.5 µM in [10]; 12.6 µM in test [11]; 6.53 µM in test [12]. For the same compound, the TGI was more than 38.1 µM in test [13]; 13.1 µM in [14]; 11.8 µM in test [15]; 19.8 µM in [16]; 19.5 µM in test [17]; 20.5 µM in test [18]. The TGI in [19] is 12.2 µM; in test [20], more than 45.4 µM.
Consider `CC(C)(C)N1C(=O)c2ccccc2C1(O)C(F)(F)F` (stereo not given), for which the TGI in test [1], in [2], in test [3], in test [4], in test [5] and in [6] was more than 100 µM throughout. Also, the TGI in test [7], in test [8], in [9], in [10], in test [11] and in test [12] was more than 100 µM each time. Besides, the TGI in test [13], in test [14], in [15], in test [16], in test [17] and in [18] was more than 100 µM each time. In addition, the TGI in test [19] and in test [20] was more than 100 µM each time.
For `CCOC(=O)C(NC(=O)C(CCCCNP(=O)(OCC)OCC)NC(=O)C(C)NC(C)=O)C(C)C` (stereo not given), the TGI in test [1], in test [2], in test [3], in test [4], in [5] and in test [6] was more than 100 µM each time. For the same compound, the TGI in test [7], in test [8], in test [9], in [10], in test [11] and in [12] was more than 100 µM each time. In addition, the TGI in [13], in test [14], in test [15], in test [16], in [17] and in test [18] was more than 100 µM in each case. The TGI in test [19] and in [20] was more than 100 µM each time.
For `Cc1c(-c2ccccc2)[nH]c2ccc(Cl)cc2c1=O`, the TGI in test [1], in [2], in test [3], in test [4], in [5] and in test [6] was more than 100 µM in each case. Also, the TGI in test [7] was 59.7 µM; in [8], 28.1 µM; in [9], more than 100 µM; in test [10], 0.205 µM; in [11], 52 µM; in test [12], more than 100 µM. For the same compound, the TGI in test [13] was more than 100 µM; in test [14], 57.5 µM; in test [15] it was more than 100 µM; in test [16], 95.2 µM; in test [17], 52 µM; in [18] it was 48.7 µM. Further, the TGI in test [19] and in test [20] was more than 100 µM throughout.
In the case of `c1ccc(CSc2ccccc2CN2CCN(Cc3ccccc3SCc3ccccc3)CCN(Cc3ccccc3SCc3ccccc3)CC2)cc1`, the TGI in test [1] came to 2.75 µM; in test [2], 2.94 µM; in test [3], 10.3 µM; in [4], 3.46 µM; in test [5], 4.61 µM; in [6], 6.04 µM. In addition, the TGI in test [7] was 3.38 µM; in [8] it was 5.26 µM; in test [9] it was 3.36 µM; in test [10] it was 10.1 µM; in [11], 2.03 µM; in test [12], 2.42 µM. For the same compound, the TGI turned out to be 4.06 µM in test [13]; 2.08 µM in test [14]; 3.32 µM in test [15]; 4.18 µM in [16]; 2 µM in [17]; 3.56 µM in test [18]. Also, the TGI in test [19] was 2.87 µM; in test [20], 18 µM.
As for `CCN(CC)C(=S)SNc1ccc(S(N)(=O)=O)cc1`, the TGI was more than 100 µM in [1]; more than 100 µM in test [2]; more than 100 µM in test [3]; more than 100 µM in [4]; more than 100 µM in test [5]; more than 72.3 µM in [6]. The TGI in [7] was more than 100 µM; in test [8], more than 100 µM; in test [9] it was more than 100 µM; in test [10], more than 100 µM; in test [11], more than 100 µM; in test [12] it was more than 54.6 µM. In addition, the TGI in test [13] is more than 100 µM; in test [14] it was more than 100 µM; in test [15], more than 100 µM; in test [16], more than 100 µM; in test [17] it was more than 100 µM; in test [18] it was 97.3 µM. Moreover, the TGI in [19] was more than 100 µM; in [20] it was more than 78.9 µM.
As to `COC(=O)C(Cc1ccccc1)NC(=O)C(CCC(=O)OCc1ccccc1)NC(=O)OC(C)(C)C` (stereo not given), the TGI in test [1], in [2], in test [3], in test [4], in test [5] and in [6] was more than 100 µM each time. Also, the TGI in test [7], in [8], in test [9], in test [10], in [11] and in test [12] was more than 100 µM throughout. The TGI in test [13], in test [14], in test [15], in test [16], in test [17] and in [18] was more than 100 µM throughout. In addition, the TGI in [19] and in test [20] was more than 100 µM each time.
With `CC1(C)C(C#N)=[N+]([O-])C(C)(C)N1O`, the TGI in [1], in [2], in test [3], in [4], in [5] and in [6] was more than 100 µM in each case. The TGI in test [7], in test [8], in test [9], in test [10], in test [11] and in test [12] was more than 100 µM throughout. Further, the TGI in test [13] is 73.4 µM; in test [14] it was more than 100 µM; in test [15], more than 100 µM; in test [16], more than 100 µM; in test [17], more than 100 µM; in test [18], more than 100 µM. Moreover, the TGI in test [19] and in [20] was more than 100 µM throughout.
As to `Cc1cc(=O)oc2cc(SC(=O)N(C)C)ccc12`, the TGI in test [1], in test [2], in [3], in test [4], in [5] and in [6] was more than 100 µM throughout. Besides, the TGI in [7], in test [8], in [9], in test [10], in [11] and in test [12] was more than 100 µM in each case. The TGI in test [13], in test [14], in [15], in test [16], in test [17] and in test [18] was more than 100 µM in each case. In addition, the TGI in [19] and in test [20] was more than 100 µM in each case.
On to `O=C(Nc1ccc(Cl)cc1)NS(=O)(=O)c1coc2ccccc2c1=O`, for which the TGI in [1], in [2], in [3], in test [4], in test [5] and in test [6] was more than 10 µM in each case. Also, the TGI in test [7], in test [8], in test [9], in [10], in test [11] and in test [12] was more than 10 µM throughout. Further, the TGI in [13], in test [14], in [15], in test [16], in test [17] and in test [18] was more than 10 µM each time. Moreover, the TGI in test [19] and in test [20] was more than 10 µM throughout.
As for `Nc1ccc(Oc2ccc(C3(c4ccc(Oc5ccc(N)cc5)cc4)C4CC5C6CC7CC5C3C(C7)C6C4)cc2)cc1`, the TGI in [1] is more than 66.4 µM; in test [2], more than 100 µM; in [3], more than 100 µM; in test [4], more than 100 µM; in [5], more than 100 µM; in test [6], more than 100 µM. Further, the TGI in test [7] was more than 100 µM; in [8], more than 87.8 µM; in test [9], 98.5 µM; in test [10], more than 100 µM; in test [11], more than 100 µM; in test [12], more than 100 µM. In addition, the TGI in [13] was more than 100 µM; in test [14], more than 70 µM; in test [15] it was more than 100 µM; in test [16], more than 100 µM; in test [17] it was 49 µM; in test [18], more than 100 µM. Moreover, the TGI in test [19] and in test [20] was more than 100 µM in each case.
In the case of `O=C1OC2C(O)COC2(O)C1(O)C(C[N+](=O)[O-])c1ccc(Cl)cc1` (stereo not given), the TGI in test [1] amounted to 7.35 µM; in test [2] it was 17.4 µM; in test [3], 31.3 µM; in test [4], 26.6 µM; in test [5], 10.8 µM; in [6] it was 32.6 µM. The TGI in test [7] is 19.4 µM; in test [8], 18.3 µM; in test [9], 37.9 µM; in test [10], 37.1 µM; in [11], 3.34 µM; in [12] it was 6.11 µM. In addition, the TGI in [13] turned out to be 10.5 µM; in [14], 25.5 µM; in test [15], 5 µM; in test [16], 20.1 µM; in test [17], 54.2 µM; in [18], 30.3 µM. Besides, the TGI in [19] stood at 34.7 µM; in test [20], 4.67 µM.
